Patent US20260139254A1, “INTERFERING RNA FOR INHIBITING TOP1 GENE EXPRESSION AND USE THEREOF” (JENKEM TECHNOLOGY CO., LTD. (BEIJING), priority 2022, published 2026)

Tests used:
A375 melanoma cells = test: Inhibition of A375 cell proliferation by siTOP1 (CCK-8); format: cell-based, human; settings: A375, siRNA 50 nM, 72 h
Description: • 1) On the day before transfection, A375 melanoma cells were seeded into a 96-well plate at 2500-3000 cells/well, the culture medium being a total volume of 200 μL of DMEM culture medium containing 7.5% FBS and 1% Penicillin-Streptomycin, and the plate was placed in an incubator with 5% CO2 at 37° C. for 24 h to allow the cells to adhere to the wall. 5 replicate wells were made for each group. • 2) On the day of transfection, the culture medium was changed to 90 μL of reduced serum culture medium without antibiotics and containing 7.5% FBS. • 3) The siRNAs were diluted with an appropriate amount of Opti-MEM culture medium; Lipofectamine™ RNAiMAX (Lipo) transfection reagent was diluted with another appropriate amount of Opti-MEM culture medium and left to stand at room temperature for 5 min; and the two dilutions were uniformly mixed and left to stand at room temperature for 5 min. • 4) 10 μL of the mixed solution described above was added to each well to obtain a final transfection volume of 100 μL, and the working concentration of the siRNA was 50 nM. • 5) The cells were cultured in the incubator with 5% CO2 at 37° C. for 72 h.
After 72 h of transfection, 10 μL of CCK-8 solution was added to each well, and the cells were cultured in the incubator with 5% CO2 at 37° C. for another 4 h. The absorbance value at 450 nm was measured using a microplate reader. Cell viability was calculated according to the following formula: […]

TOP1 mRNA = test: Dose-dependence of siTOP1-1604 on TOP1 mRNA in PC-3 cells (qPCR); format: cell-based, human; settings: for Relative expression level of TOP1, mean value: 24 h, siNC = 100.00
Description: A transfection system was prepared as follows on the day of transfection: siTOP1-1604 was diluted with an appropriate amount of Opti-MEM culture medium; Lipofectamine™ RNAiMAX (Lipo) transfection reagent was diluted with another appropriate amount of Opti-MEM culture medium and left to stand at room temperature for 5 min; and the two dilutions were uniformly mixed, left to stand at room temperature for 5 min, and then added to 24-well cell culture plates at 50 μL/well. PC-3 human prostate cancer cells were added to one of the 24-well cell culture plates at 4×10^5 cells/well, the culture medium being 450 μL of F12K containing 10% FBS; HCT116 human colon cancer cells were added to the other of the 24-well cell culture plates at 3.5×10^5 cells/well, the culture medium being 450 μL of IMDM containing 10% FBS. The cells were uniformly mixed with the siRNA. The final transfection volume was 500 μL, and the working concentrations of the siRNA were 10, 1.67, 0.27, 0.046, 0.0077, 0.0013, and 0.00021 nM. The control groups were Blank (Opti-MEM at the equal volume), Lipofectamine™ RNAiMAX (Lipo) transfection reagent, as well as 10 nM of siNC.
After 24 h of transfection, the cells were collected. The total cellular RNA was extracted according to the method in Example 2, and the level of TOP1 mRNA was detected. […] Nonlinear fitting was performed on the qPCR results using Graphpad software and IC50 of siTOP1 was calculated.

Question: What does the source list for “siTOP1-1604: siRNA targeting TOP1; target SEQ ID NO: 9, sense strand SEQ ID NO: 24, antisense strand SEQ ID NO: 39 (sense GUGUGGACAAGAUCCGGAAUU; antisense UUCCGGAUCUUGUCCACACUU; described as unmodified parent siRNA, further chemistry not given here)”?
Answer: Cell viability (%), mean value (A375 melanoma cells): 41.65%; Inhibition of A375 cell proliferation compared to Blank (A375 melanoma cells): about 58%; Relative expression level of TOP1, mean value (TOP1 mRNA; PC-3, 0.00021 nM): 125.48; Relative expression level of TOP1, mean value (TOP1 mRNA; PC-3, 0.0013 nM): 96.21; Relative expression level of TOP1, mean value (TOP1 mRNA; PC-3, 0.0077 nM): 122.71; Relative expression level of TOP1, mean value (TOP1 mRNA; PC-3, 0.046 nM): 47.64; Relative expression level of TOP1, mean value (TOP1 mRNA; PC-3, 0.27 nM): 24.94; Relative expression level of TOP1, mean value (TOP1 mRNA; PC-3, 1.67 nM): 21.05; Relative expression level of TOP1, mean value (TOP1 mRNA; PC-3, 10 nM): 19.66; IC50 (TOP1 mRNA; PC-3, 24 h, relative to siNC, nonlinear fit of qPCR results): 0.075 nM
